According to patent US20040136926A1, “Intra-oral drug delivery system” (priority 2002, published 2004):
Where a SMILES comes first, the peptide text is derived from it. Bridges are numbered along the chain shown (N, C = ends). Roman numbers before positions name the chains, in order. Where no end group is shown, it is not given here. [ ]: non-standard residue; d: D form. pS = N[C@@H](COP(=O)(O)O)C(=O)O

Tests used:
[1] = Peptide adsorption to hydroxyapatite (HAP) beads; format: binding; details: for K × 10^−5 (affinity coefficient) / N × 10^6 (adsorption parameter): adsorption to HAP, C/Q = 1/KN + C/N
Description: The extent to which the hybrid molecule gets adsorbed was examined using hydroxyapatite (HAP) beads as described previously (Raj, et al., supra, 1992).

[2] = tested on: Candida albicans; test: Fungicidal activity of hybrid adsorbed HAP beads, fluorescent probes (membrane damage); format: cell-based; details: hybrid adsorbed HAP surface, as a function of time
Method: (§1) The fungicidal and bactericidal activity of the hybrid adsorbed HAP beads was determined using fluorescent probes. The increase in fluorescence as a function of microbial membrane damage was monitored. […] Candida albicans and Actinobacillus actinomycetemcomitans were used as the fungal and bacterial organisms, respectively.

[3] = tested on: Actinobacillus actinomycetemcomitans; test: Bactericidal activity of hybrid adsorbed HAP beads, fluorescent probes (membrane damage); format: cell-based; details: hybrid adsorbed HAP surface, as a function of time
Method: as §1

[4] = literature (Raj, et al., 1992); cited from earlier work

Compound | K × 10^−5 (affinity coefficient) [1] [liter mol^−1] | N × 10^6 (adsorption parameter) [1] [mol m^−2] | Affinity for HAP (in words) ([1]; hydroxyapatite beads) | Microbial membrane damage (increase in fluorescence) vs control HAP [2] | Microbial membrane damage (increase in fluorescence) vs control HAP [3] | Affinity for HAP compared with whole statherin [4]
CC[C@H](C)[C@@H]1NC(=O)[C@H](CCCNC(=N)N)NC(=O)[C@@H](NC(=O)[C@H](CC(C)C)NC(=O)[C@@H](N)CCCNC(=N)N)CSSC[C@@H](C(=O)N[C@@H](CCCNC(=N)N)C(=O)OC[C@H](NC(=O)[C@H](CC(=O)O)NC(=O)[C@H](CC(=O)O)NC(=O)[C@H](CC(=O)O)NC(=O)[C@H](CCC(=O)O)NC(=O)[C@@H](N)CCC(=O)O)C(=O)O)NC(=O)[C@H](C(C)C)NC(=O)[C@H](CCCNC(=N)N)NC(=O)[C@H]([C@@H](C)CC)NC(=O)[C@H](C(C)C)NC(=O)[C@H](C(C)C)NC1=O [Hybrid] (I: H-RLCRIVVIRVCR / II: H-EEDDDS-OH; disulfide I:3-I:11; ester I:C-II:6; N-terminus assumed) | 10.8 ± 1.8 | 1.6 ± 0.2 | quite comparable to salivary statherin | significantly caused microbial membrane damage | significantly caused microbial membrane damage | 
D-D-D-E-E-K-F-L-R-R-I-G-R-F-G (DDDEEKFLRRIGRFG) [SNA15, Analog of SN15] |  |  |  |  |  | higher affinity for HAP than the whole molecule
D-Sp-Sp-E-E-K-F-L-R-R-I-G-R-F-G (D[pS][pS]EEKFLRRIGRFG; UniProt P02808 20-34, looked up, fragment) [SN15, Amino-terminal 15-residue fragment of statherin] |  |  |  |  |  | higher affinity for HAP than the whole molecule
D-Sp-Sp-EEKFLRRIGRFGYGYGPYQPVPEQPLYPQPYQPQYQQYTF (D[pS][pS]EEKFLRRIGRFGYGYGPYQPVPEQPLYPQPYQPQYQQYTF; UniProt P02808 20-62, looked up) [Statherin, Salivary phosphorylated polypeptide, reference compound] | 11.1 ± 2.0 | 0.9 ± 0.05 |  |  |  | 
